Reference: paper PMC8778187, “A New Oxygen Containing Pyclen-Type Ligand as a Manganese(II) Binder for MRI and ^52Mn PET Applications: Equilibrium, Kinetic, Relaxometric, Structural and Radiochemical Studies” (Molecules, 2022)

Test: Stability and protonation constants of Cu(II) complexes by pH-potentiometry and UV-Vis spectrophotometry
Assay type: physicochemical
Settings: Cu^2+ complex, T = 25 °C, I = 0.15 M NaCl
Method: The stability and protonation constants of the metal complexes formed with H2OPC2A were determined by pH-potentiometric titrations, but, for the Cu(II) complex, UV-Vis spectrophotometric measurements were also carried out to supplement the pH-potentiometric titration data (Figures S21 and S22, Supporting Information).
Metal stock solutions were prepared from the highest analytical grade chemicals, and their concentrations were determined by complexometric titration with standardized Na2H2EDTA and eriochrome black T indicator in the presence of ascorbic acid, and potassium hydrogen tartrate for MnCl2, murexide indicator for CaCl2 and CuCl2, eriochrome black T for MgCl2 and xylenol orange in the presence of hexamethylenetetramine for the solution of ZnCl2. The concentration of the ligand stock solution was determined by pH-potentiometric titrations. The protonation constants of the ligand were determined by the pH potentiometric titrations with 0.15 M NaOH, using 0.0025 M ligand solutions. The ionic strength was set to 0.15 M by using NaCl. The titrated samples (starting volume of 6 mL) were stirred mechanically, and thermostated at 25 °C by a circulating water bath (±0.1 °C). […]
To avoid the effect of CO2, N2 gas was bubbled through the solutions during the titrations process. […] For the calibration of the pH meter, KH-phtalate (pH = 4.005) and borax (pH = 9.177) buffers were used, and the H^+ ion concentrations were calculated from the measured pH values by applying the method proposed by Irving et al.. A solution of approximately 0.01 M HCl was titrated with a 0.15 M NaOH solution (0.15 or 1.00 M NaCl), and the differences between the measured and calculated pH values (for the points with pH < 2.4) were used to calculate the (H^+) from the pH values measured in the titration experiments. […] The stability constants of the metal complexes (except for Cu(II)) were determined using the direct pH-potentiometric method, by titrating samples with 1:1 metal-to-ligand ratios (the number of fitted data pairs were between 127–212), allowing 1 min for the sample equilibration to occur. […]

In the case of O=C(O)CN1CCOCCN(CC(=O)O)Cc2cccc(n2)C1 [H23,9-OPC2A, 6-Oxa-3,9,15-triazabicyclo(9.3.1)pentadeca-1(15),11,13-triene-3,9-diacetic acid], the “log KMnLOH” value is reported as 10.50(5), the “log KMnHL” value (footnote g) is reported as 1.92(4) ^g and the “log KMnL” value (footnote g) is reported as 18.41(4) ^g.
